Experimental data from ChEMBL document CHEMBL1155516, “Biochemical and structural analysis of the binding determinants of a vascular endothelial growth factor receptor peptidic antagonist” (J Med Chem, 2010).
The source made the active and inactive calls. No cut-off for these calls is given here. Where a SMILES comes first, the peptide text is derived from it. Bridges are numbered along the chain shown (N, C = ends).

Key:
[1] = target: Vascular endothelial growth factor receptor 2 (Homo sapiens) (UniProt P35968); assay: Inhibition of VEGFR2 phosphorylation in VEGF165-stimulated HUVEC at 100 uM treated for 1 hr before VEGF165 challenge measured after 5 mins by Western blot analysis; format: cell-based
Sequence of Vascular endothelial growth factor receptor 2 (Homo sapiens) (P35968 whole entry, the tested form may be a part): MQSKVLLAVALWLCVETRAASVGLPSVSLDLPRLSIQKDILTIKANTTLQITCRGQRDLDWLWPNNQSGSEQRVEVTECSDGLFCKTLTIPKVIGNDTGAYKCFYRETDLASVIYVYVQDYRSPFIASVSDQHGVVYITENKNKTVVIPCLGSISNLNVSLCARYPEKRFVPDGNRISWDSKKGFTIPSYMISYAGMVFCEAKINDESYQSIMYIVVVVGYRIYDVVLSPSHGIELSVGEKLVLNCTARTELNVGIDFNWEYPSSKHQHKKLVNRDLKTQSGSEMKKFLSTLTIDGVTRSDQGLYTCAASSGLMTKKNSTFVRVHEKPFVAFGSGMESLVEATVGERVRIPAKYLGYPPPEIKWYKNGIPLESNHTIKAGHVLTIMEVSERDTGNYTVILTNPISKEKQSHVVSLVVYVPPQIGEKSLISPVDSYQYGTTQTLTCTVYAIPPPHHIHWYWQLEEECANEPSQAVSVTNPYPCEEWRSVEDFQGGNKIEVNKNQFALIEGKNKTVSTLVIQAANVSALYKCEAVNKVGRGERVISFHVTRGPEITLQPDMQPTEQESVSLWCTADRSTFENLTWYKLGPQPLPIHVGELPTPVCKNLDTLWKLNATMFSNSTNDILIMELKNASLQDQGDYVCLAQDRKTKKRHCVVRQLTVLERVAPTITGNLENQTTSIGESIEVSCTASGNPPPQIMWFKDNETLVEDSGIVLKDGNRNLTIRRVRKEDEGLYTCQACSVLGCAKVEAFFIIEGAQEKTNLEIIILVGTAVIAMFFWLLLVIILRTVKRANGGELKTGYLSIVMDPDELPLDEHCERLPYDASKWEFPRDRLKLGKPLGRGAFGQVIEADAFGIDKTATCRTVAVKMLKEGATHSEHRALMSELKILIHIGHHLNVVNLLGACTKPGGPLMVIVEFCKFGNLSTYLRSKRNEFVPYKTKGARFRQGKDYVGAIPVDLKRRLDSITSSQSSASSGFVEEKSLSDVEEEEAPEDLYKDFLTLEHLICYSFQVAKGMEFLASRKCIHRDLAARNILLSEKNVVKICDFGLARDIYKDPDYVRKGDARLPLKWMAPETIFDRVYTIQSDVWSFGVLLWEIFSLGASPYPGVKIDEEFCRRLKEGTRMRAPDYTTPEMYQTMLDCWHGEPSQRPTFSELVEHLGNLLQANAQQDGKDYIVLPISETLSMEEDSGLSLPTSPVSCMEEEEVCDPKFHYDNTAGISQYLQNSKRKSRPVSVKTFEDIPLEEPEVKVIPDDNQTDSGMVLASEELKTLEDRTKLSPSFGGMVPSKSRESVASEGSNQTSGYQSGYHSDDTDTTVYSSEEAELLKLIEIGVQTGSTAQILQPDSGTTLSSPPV

HUVEC [2] = details: Homo sapiens, 100 uM
Description: Inhibition of VEGFR in HUVEC assessed as inhibition of VEGF165-induced ERK1/2 phosphorylation at 100 uM treated for 1 hr before VEGF165 challenge measured after 15 mins by Western blot analysis

HUVEC [3] = details: Homo sapiens, 33 uM
Description: Inhibition of VEGFR in HUVEC assessed as inhibition of VEGF165-induced ERK1/2 phosphorylation at 33 uM treated for 1 hr before VEGF165 challenge measured after 15 mins by Western blot analysis

[4] = target: Vascular endothelial growth factor receptor 2 (Homo sapiens) (UniProt P35968); assay: Inhibition of VEGFR2 phosphorylation in VEGF165-stimulated HUVEC at 3 uM treated for 1 hr before VEGF165 challenge measured after 5 mins by Western blot analysis
[5] = target: Vascular endothelial growth factor receptor 2 (Homo sapiens) (UniProt P35968); assay: Inhibition of VEGFR2 phosphorylation in VEGF165-stimulated HUVEC at 10 uM treated for 1 hr before VEGF165 challenge measured after 5 mins by Western blot analysis; format: cell-based
HUVEC [6] = details: Homo sapiens, 10 uM
[7] = target: Vascular endothelial growth factor receptor 2 (Homo sapiens) (UniProt P35968); assay: Inhibition of VEGFR2 phosphorylation in VEGF165-stimulated HUVEC at 33 uM treated for 1 hr before VEGF165 challenge measured after 5 mins by Western blot analysis; format: cell-based
[8] = target: Vascular endothelial growth factor receptor 2 (Homo sapiens) (UniProt P35968); assay: Inhibition of VEGFR2 phosphorylation in VEGF165-stimulated HUVEC treated for 1 hr before VEGF165 challenge measured after 5 mins by Western blot analysis; format: cell-based
HUVEC [9] = details: Homo sapiens, 3 uM
Description: Inhibition of VEGFR in HUVEC assessed as inhibition of VEGF165-induced ERK1/2 phosphorylation at 3 uM treated for 1 hr before VEGF165 challenge measured after 15 mins by Western blot analysis

[10] = target: Vascular endothelial growth factor receptor 2 (Homo sapiens) (UniProt P35968); assay: Binding affinity to human recombinant VEGFR2 extracellular domain immobilized in CNBr-activated sepharose at 25 nmol after 5 mins by pull-down assay

In the case of `CC(C)C[C@@H]1NC(=O)CNC(=O)[C@H](CCC(=O)O)NC(=O)[C@H](CC(=O)O)NC(=O)[C@H](Cc2ccc(O)cc2)NC(=O)[C@H](C)NC(=O)CC[C@@H](C(N)=O)NC(=O)[C@H](CCC(=O)O)NC1=O` (AYDEGLEE-NH2; lactam N-8), the inhibition [1] is reported as “inactive”.
`CC(C)C[C@@H]1NC(=O)CNC(=O)[C@H](CCC(=O)O)NC(=O)[C@H](CC(=O)O)NC(=O)[C@H](C)NC(=O)[C@H](Cc2ccc(O)cc2)NC(=O)CC[C@@H](C(N)=O)NC(=O)[C@H](CCC(=O)O)NC1=O` (YADEGLEE-NH2; lactam N-8) was tested, and the inhibition [1] was “inactive”.
`CC(C)C[C@@H]1NC(=O)CNC(=O)[C@H](CCC(=O)O)NC(=O)[C@H](CC(=O)O)NC(=O)[C@H](CCCCN)NC(=O)[C@H](Cc2ccc(O)cc2)NC(=O)CC[C@@H](C(N)=O)NC(=O)[C@H](CCC(=O)O)NC1=O` (YKDEGLEE-NH2; lactam N-8) was tested, and the inhibition [1] was “Active”.
For `CC(C)C[C@@H]1NC(=O)CNC(=O)[C@H](C)NC(=O)[C@H](CC(=O)O)NC(=O)[C@H](Cc2ccc(O)cc2)NC(=O)[C@H](Cc2ccc(O)cc2)NC(=O)CC[C@@H](C(N)=O)NC(=O)[C@H](CCC(=O)O)NC1=O` (YYDAGLEE-NH2; lactam N-8), the inhibition [1] was “inactive”.
`C[C@@H]1NC(=O)CNC(=O)[C@H](CCC(=O)O)NC(=O)[C@H](CC(=O)O)NC(=O)[C@H](Cc2ccc(O)cc2)NC(=O)[C@H](Cc2ccc(O)cc2)NC(=O)CC[C@@H](C(N)=O)NC(=O)[C@H](CCC(=O)O)NC1=O` (YYDEGAEE-NH2; lactam N-8) was tested, and the inhibition [1] was “inactive”.
`CC(C)C[C@@H]1NC(=O)CNC(=O)[C@H](CCC(=O)O)NC(=O)[C@H](CC(=O)O)NC(=O)[C@H](Cc2ccc(O)cc2)NC(=O)[C@H](Cc2ccc(O)cc2)NC(=O)CC[C@@H](C(N)=O)NC(=O)[C@H](C)NC1=O` (YYDEGLAE-NH2; lactam N-8) was tested, and the inhibition [1] was “inactive”.
With `CC(C)C[C@@H]1NC(=O)CNC(=O)[C@H](CCC(=O)O)NC(=O)[C@H](CC(=O)O)NC(=O)[C@H](Cc2ccc(O)cc2)NC(=O)[C@H](Cc2ccc(O)cc2)NC(=O)CC[C@@H](C(N)=O)NC(=O)[C@H](CCC(=O)O)NC1=O` (YYDEGLEE-NH2; lactam N-8) the inhibition (HUVEC [2]) was “Active”, the inhibition (HUVEC [3]) was “Active” and the inhibition [4] was “inactive”. For the same molecule, the inhibition [5] was “Active”, the inhibition (HUVEC [6]) was “Active” and the inhibition [7] was “Active”. For the same molecule, the inhibition [1] was “Active”, the inhibition [8] was “Dose-dependent effect” and the inhibition (HUVEC [9]) was “inactive”.
With `CC(C)C[C@@H]1NC(=O)[C@H](CCCCN)NC(=O)[C@H](CCC(=O)O)NC(=O)[C@H](CC(=O)O)NC(=O)[C@H](Cc2ccc(O)cc2)NC(=O)[C@H](Cc2ccc(O)cc2)NC(=O)CC[C@@H](C(N)=O)NC(=O)[C@H](CCC(=O)O)NC1=O` (YYDEKLEE-NH2; lactam N-8) the inhibition [1] was “Active”.
`CC(C)C[C@@H]1NC(=O)CNC(=O)[C@H](CCC(=O)O)NC(=O)[C@H](CCCCN)NC(=O)[C@H](Cc2ccc(O)cc2)NC(=O)[C@H](Cc2ccc(O)cc2)NC(=O)CC[C@@H](C(N)=O)NC(=O)[C@H](CCC(=O)O)NC1=O` (YYKEGLEE-NH2; lactam N-8) was tested, and the inhibition [1] was “Active” and the Activity [10] was “inactive”.
